Where “and” joins values, the source holds several entries; their conditions need not be identical. Equal entries are not always repeated. Where two headings read alike, the source gives them in different places.
Experiments:
[1] = system: CYP450s; assay: In vitro cocktail CYP450 activity assay, isozyme not given; type: in vitro ADME, SD rat
Experimental: (OHBUP-[D6]) and 5 nM 4′-hydroxydiclofenac-[^13C6] (OHDIC-[^13C6]) as internal standards (ISs).

[2] = system: CYP2C9; assay: in vitro; conditions: for IC50: microsomes
Method in brief: (§1)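 Probe substrates were pooled in a single microsomal incubation, with each substrate concentration optimized to keep metabolite formation linear. Metabolites were quantified against isotope-labelled internal standards: hydroxybupropion-[D6] (OHBUP-[D6]) and 5 nM 4′-hydroxydiclofenac-[^13C6] (OHDIC-[^13C6]).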

[3] = system: CYP3A4; assay: in vitro; conditions: for IC50: microsomes
Method in brief: as §1

[4] = system: CYP2D6; assay: in vitro
Method in brief: as §1

[5] = system: CYP2B6; assay: in vitro; conditions: for IC50: microsomes
Method in brief: as §1

[6] = biological target: T1, CYP2E1 (Rattus norvegicus, UniProt P05182); conditions: for IC50: microsomes
[7] = biological target: T2, CYP1A2 (Rattus norvegicus, UniProt P04799); assay: In vitro cocktail CYP450 activity assay in rat liver microsomes, CYP1A2 (phenacetin probe)
T2 sequence (P04799 1-513): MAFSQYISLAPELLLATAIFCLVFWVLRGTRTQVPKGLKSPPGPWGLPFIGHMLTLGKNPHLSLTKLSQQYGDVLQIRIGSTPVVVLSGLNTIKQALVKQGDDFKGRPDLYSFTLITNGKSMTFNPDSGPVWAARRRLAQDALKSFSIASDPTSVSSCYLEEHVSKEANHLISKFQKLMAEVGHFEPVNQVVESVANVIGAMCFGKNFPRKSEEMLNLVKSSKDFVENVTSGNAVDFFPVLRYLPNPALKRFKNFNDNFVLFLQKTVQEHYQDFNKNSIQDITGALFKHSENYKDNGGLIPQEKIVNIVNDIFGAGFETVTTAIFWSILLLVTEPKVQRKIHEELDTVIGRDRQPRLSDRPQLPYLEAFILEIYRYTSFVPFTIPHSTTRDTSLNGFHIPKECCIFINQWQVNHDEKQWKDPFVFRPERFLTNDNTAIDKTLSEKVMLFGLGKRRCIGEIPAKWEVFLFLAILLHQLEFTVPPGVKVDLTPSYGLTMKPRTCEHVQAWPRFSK
Method in brief: as §1

[8] = system: CYP2C19; assay: in vitro; conditions: for IC50: microsomes
Method in brief: as §1

[9] = biological target: T2, CYP1A2; conditions: cited from earlier work
[10] = system: CYP3A4; conditions: cited from earlier work
[11] = in vivo; set-up: species or system Sprague-Dawley (SD) rats; conditions: Sprague-Dawley, plasma, rat
Experimental: At each time, 0.5 mL of blood was collected in the heparin sodium tubes. Plasma was separated by centrifugation at 4000 rpm for 10 min and stored below −80 °C until bioanalysis. Oasis PRiME HLB SPE cartridges (1 cc/30 mg, Waters, Milford, MA, USA) were used to process the plasma samples (Supplementary Materials).
The generic layout of instrumentation setup of the LVDI-UHPLC-MS/MS was conducted on a Shimadzu UHPLC system consisting of two LC-20ADXR pumps, a DGU-20A3R degasser, and a CBM-20A controller (Kyoto, Japan) with a SCIEX 4500 QTRAP mass spectrometer mounted with an electron spray ionization (ESI) interface as well as an electronic 6-port/2-channel valve (Foster City, CA, USA). Analyst software package (version 1.6.2, SCIEX) was implemented to control and synchronize the entire system, and also for data acquisition and processing. A single analytical run was fragmented into two phases, namely, loading and elution phases, by switching the electronic valve (Figure 2). At the loading phase, the valve was maintained at A-channel. The specimen aliquot of large volume delivered from the auto-sampler was captured onto a guard column. Meanwhile, the pumps were responsible for delivering the mobile phase at a high flow rate, aiming to dilute the sample solvent, thus facilitating the candidate constituents to concentrate on the pre-guard column. Then, the valve was automatically switched to the B-channel to trigger the elution phase. The trapped components were flushed from the pre-guard column into an analytical column, and underwent multiple reaction monitoring (MRM) analysis on the optimized LC gradients. The detailed information of LVDI-UHPLC-MS/MS analysis for pharmacokinetic and cocktail studies is shown in the Supplementary Materials section.

[12] = biological target: T1, CYP2E1; conditions: IC50 CYP2E1, single components; RLM 0.2 mg/mL, 15 min, triplicate, mean ± SD
[13] = substrate: CCOc1ccc(NC(C)=O)cc1; assay: not read; conditions: other: probe substrate, PHE to dEtPHE, CYP1A2, n = 3; pH 7.4; 37.0 °C
[14] = at the Cmax level in rat plasma, calculated from the dose–response curve
[15] = Sprague-Dawley, rat, 15 min, pH 7.4

T1 sequence (P05182 whole entry): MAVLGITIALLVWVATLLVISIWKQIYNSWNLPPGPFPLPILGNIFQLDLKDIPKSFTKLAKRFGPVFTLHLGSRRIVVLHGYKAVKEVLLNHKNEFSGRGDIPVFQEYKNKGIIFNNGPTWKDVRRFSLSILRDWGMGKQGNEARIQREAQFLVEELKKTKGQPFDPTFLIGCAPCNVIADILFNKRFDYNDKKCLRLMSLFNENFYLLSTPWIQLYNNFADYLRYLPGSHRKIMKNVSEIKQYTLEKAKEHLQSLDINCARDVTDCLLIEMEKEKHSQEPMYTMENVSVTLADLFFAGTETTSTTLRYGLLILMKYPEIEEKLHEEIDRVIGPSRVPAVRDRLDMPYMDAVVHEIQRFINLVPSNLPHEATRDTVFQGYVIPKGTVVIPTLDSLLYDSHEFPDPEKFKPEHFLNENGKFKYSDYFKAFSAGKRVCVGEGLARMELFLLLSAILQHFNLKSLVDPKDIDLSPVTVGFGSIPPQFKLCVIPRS

O=c1c(OC2O[C@H](CO)[C@@H](O)[C@H](O)[C@H]2O)c(-c2ccc(O)cc2)oc2cc(O)c(O)c(O)c12 (stereo partly drawn) [A6, 6-hydoxykaempferol-3-O-glucoside]
IC50 [1]: ≤ 15 µM
IC50 [2]: 55.8 ± 3.4 µM
IC50 [3]: 26.4 ± 1.39 µM
IC50 ([4]; microsomes): 19.5 ± 2.83 µM
IC50 [5]: 115 ± 3.04 µM
IC50 [6]: 40.8 ± 1.65 µM
IC50 ([7]; microsomes): 52.8 ± 1.93 µM
IC50 [8]: 53.67 ± 0.22 µM

O=C(/C=C/c1ccc(O)cc1)C1=C(O)C2=C(O[C@H]([C@@H](O)[C@H](O)[C@H](O)CO)[C@H]2C2=C(O)/C(=C(O)/C=C/c3ccc(O)cc3)C(=O)C(O)([C@@H]3O[C@H](CO)[C@@H](O)[C@H](O)[C@H]3O)C2=O)C(O)([C@@H]2O[C@H](CO)[C@@H](O)[C@H](O)[C@H]2O)C1=O (stereo partly drawn) [A8, anhydroxysafflor yellow B]
IC50 [1]: ≤ 15 µM
IC50 [2]: 1.21 ± 0.51 µM
IC50 [3]: 34.4 ± 9.16 µM
IC50 ([4]; microsomes): 10.5 ± 1.11 µM
IC50 [5]: > 200 µM
IC50 [6]: 9.06 ± 1.85 µM
IC50 ([7]; microsomes): > 200 µM
IC50 [8]: 111 ± 21.6 µM

O=c1c(O[C@@H]2O[C@H](CO)[C@@H](O)[C@H](O)[C@H]2O)c(-c2ccc(O)cc2)oc2cc(O)c(O[C@@H]3O[C@H](CO)[C@@H](O)[C@H](O)[C@H]3O)c(O)c12 [A13, 6-hydroxykaempferol-3,6-di-O-glucoside]
IC50 [1]: ≤ 15 µM
IC50 [2]: 93 ± 2.56 µM
IC50 [3]: 58.5 ± 0.66 µM
IC50 ([4]; microsomes): 37.1 ± 8.85 µM
IC50 [5]: 21 ± 2.31 µM
IC50 [6]: 10.2 ± 0.65 µM
IC50 ([7]; microsomes): 13.3 ± 2.27 µM
IC50 [8]: 48.9 ± 4.36 µM

Cc1nc2c([nH]1)c(=O)n(C)c(=O)n2Cc1ccco1 [FUR, furafylline]
IC50 ([9]; read-out: Reported IC50, positive inhibitor of CYP1A2, literature ref 9, 10,11): 1.3 µM and 1.76 to 13.9 µM
IC50 ([7]; Tested IC50): 0.597 ± 0.0514 µM

Cc1ncc2n1-c1ccc(Cl)cc1C(c1ccccc1F)=NC2 [MID, midazolam, reference compound]
Km ([3]; SD, rat, pH 7.4): 11 ± 1.51 µM
Km ([10]; read-out: Reported Km, probe substrate MID, CYP3A4, literature range ref 9): 1 to 14 µM

CC(C)=CCC[C@](C)(O[C@@H]1O[C@H](CO)[C@@H](O)[C@H](O)[C@H]1O)[C@H]1CC[C@]2(C)[C@@H]1[C@H](O)C[C@@H]1[C@@]3(C)CC[C@H](O)C(C)(C)[C@@H]3[C@@H](O[C@@H]3O[C@H](CO)[C@@H](O)[C@H](O)[C@H]3O[C@@H]3OC[C@@H](O)[C@H](O)[C@H]3O)C[C@]12C [NGR1, notoginsenoside R1]
IC50 at 15 min ([2]; Sprague-Dawley, rat, pooled rat liver microsomes, pH 7.4, probe tolbutamide (18 µM, in seven-probe cocktail), IC50 CYP2C9, single components, RLM 0.2 mg/mL, 15 min, triplicate, mean ± SD): 154 ± 16.6 µM
Response (% control) CYP2C9 [2, 14]: 99.99 % control
IC50 ([3]; Sprague-Dawley, rat, pH 7.4, IC50 CYP3A4, single components, RLM 0.2 mg/mL, 15 min, triplicate, mean ± SD): 84.6 ± 1.79 µM
Response (% control) CYP3A4 [3, 14]: 99.94 % control
Response (% control) CYP2D6 [4, 15]: 92.76 % control
IC50 at 15 min ([4]; Sprague-Dawley, rat, microsomes, pH 7.4, IC50 CYP2D6): 20.4 ± 3.45 µM
IC50 at 15 min ([5]; Sprague-Dawley, rat, pooled rat liver microsomes, pH 7.4, probe bupropion (90 µM, in seven-probe cocktail), IC50 CYP2B6, single components, RLM 0.2 mg/mL, 15 min, triplicate, mean ± SD): > 200 µM
concentration at […] ([11]; 0.083 h after oral CNP): 0.26 ± 0.06 ng/mL
concentration at 0.25 h ([11]; 0.25 h after oral CNP): 0.36 ± 0.05 ng/mL
concentration at 0.5 h ([11]; 0.5 h after oral CNP): 0.53 ± 0.29 ng/mL
concentration at 1 h ([11]; 1 h after oral CNP): 0.45 ± 0.19 ng/mL
concentration at 1.5 h ([11]; 1.5 h after oral CNP): 0.33 ± 0.12 ng/mL
concentration at 2 h ([11]; 2 h after oral CNP): 0.32 ± 0.05 ng/mL
concentration at 3 h ([11]; 3 h after oral CNP): 0.44 ± 0.15 ng/mL
concentration at 4 h ([11]; 4 h after oral CNP): 0.38 ± 0.12 ng/mL
concentration at 6 h ([11]; 6 h after oral CNP): 0.37 ± 0.17 ng/mL
concentration at 8 h ([11]; 8 h after oral CNP): 0.46 ± 0.15 ng/mL
concentration at 12 h ([11]; 12 h after oral CNP): 0.38 ± 0.18 ng/mL
concentration at 24 h ([11]; 24 h after oral CNP): 0.17 ± 0.06 ng/mL
AUC(0-inf) ([11]; po, 60 mg/kg): 8.14 ± 3.6 ng·h/mL
AUC(0-t) ([11]; po, 60 mg/kg): 6.3 ± 2.41 ng·h/mL
Cmax ([11]; po, 60 mg/kg): 0.64 ± 0.18 ng/mL
Tmax ([11]; po, 60 mg/kg): 1.15 ± 1.06 h
half-life ([11]; po, 60 mg/kg): 10.5 ± 3.06 h
concentration at 0.25 h ([11]; po, 60 mg·kg^−1): 0.46 ± 0.18 ng/mL
concentration at 0.5 h ([11]; po, 60 mg·kg^−1): 0.5 ± 0.15 ng/mL
concentration at 1 h ([11]; po, 60 mg·kg^−1): 0.45 ± 0.14 ng/mL
concentration at 1.5 h ([11]; po, 60 mg·kg^−1): 0.28 ± 0.1 ng/mL
concentration at 2 h ([11]; po, 60 mg·kg^−1): 0.25 ± 0.11 ng/mL
concentration at 3 h ([11]; po, 60 mg·kg^−1): 0.46 ± 0.2 ng/mL
concentration at 4 h ([11]; po, 60 mg·kg^−1): 0.38 ± 0.26 ng/mL
concentration at 6 h ([11]; po, 60 mg·kg^−1): 0.25 ± 0.06 ng/mL
concentration at 8 h ([11]; po, 60 mg·kg^−1): 0.35 ± 0.06 ng/mL
concentration at 12 h ([11]; po, 60 mg·kg^−1): 0.35 ± 0.14 ng/mL
concentration at 24 h ([11]; po, 60 mg·kg^−1): 0.14 ± 0.04 ng/mL
Response (% control) CYP2E1 [6, 15]: 99.99 % control
IC50 ([7]; IC50 CYP1A2, single components, RLM 0.2 mg/mL, 15 min, triplicate, mean ± SD): 112 ± 7.72 µM
IC50 at 15 min ([8]; Sprague-Dawley, rat, pooled rat liver microsomes, pH 7.4, probe omeprazole (1.07 µM, in seven-probe cocktail), IC50 CYP2C19, single components, RLM 0.2 mg/mL, 15 min, triplicate, mean ± SD): 108 ± 29.6 µM
Response (% control) CYP2C19 [8, 14]: 92.32 % control
IC50 [12]: 122 ± 8.96 µM

CCOc1ccc(NC(C)=O)cc1 [PHE, phenacetin]
Km ([9]; read-out: Reported Km, probe substrate PHE, CYP1A2, literature range ref 9): 1.7 to 152 µM

B1: CYP1A2 (Rattus norvegicus) (protein)
chain: MAFSQYISLAPELLLATAIFCLVFWVLRGTRTQVPKGLKSPPGPWGLPFIGHMLTLGKNPHLSLTKLSQQYGDVLQIRIGSTPVVVLSGLNTIKQALVKQGDDFKGRPDLYSFTLITNGKSMTFNPDSGPVWAARRRLAQDALKSFSIASDPTSVSSCYLEEHVSKEANHLISKFQKLMAEVGHFEPVNQVVESVANVIGAMCFGKNFPRKSEEMLNLVKSSKDFVENVTSGNAVDFFPVLRYLPNPALKRFKNFNDNFVLFLQKTVQEHYQDFNKNSIQDITGALFKHSENYKDNGGLIPQEKIVNIVNDIFGAGFETVTTAIFWSILLLVTEPKVQRKIHEELDTVIGRDRQPRLSDRPQLPYLEAFILEIYRYTSFVPFTIPHSTTRDTSLNGFHIPKECCIFINQWQVNHDEKQWKDPFVFRPERFLTNDNTAIDKTLSEKVMLFGLGKRRCIGEIPAKWEVFLFLAILLHQLEFTVPPGVKVDLTPSYGLTMKPRTCEHVQAWPRFSK
Km [13]: 65.26 ± 14.35 µM

— PMC7076352 (Pharmaceutics, 2020)
